The text below walks through data of paper PMC7578299, “The antiviral effects of baloxavir marboxil against influenza A virus infection in ferrets” (Influenza and Other Respiratory Viruses, 2020).

Series [1] deals with Influenza A virus A/Kadoma/3/2006 (H1N1). The experiment in a line: Experiment 1: infected ferrets, treatment starting at Day 1 p.i. (virus titer in nasal washes, body temperature). The series is classed as in vivo, ferret. Conditions: for reduction of virus titers by Day 2: treatment at Day 1 p.i.
A short description of series [2]: Metabolic stability in liver microsomes, rat. It counts as in vitro ADME. To be noted: for % Residual in liver microsome: 0.5 mg/mL, 2 μmol/L, 37°C, mean of duplicates; for % Residual in liver microsome Individual value: duplicates. How it is done: Liver microsomes were prepared from ferrets, rats, dogs, and monkeys, as previously described. ^28 Human liver microsomes were obtained from Sekisui‐XenoTech, LLC and pooled (n = 15). Metabolic stability of the compounds in liver microsomes was tested in duplicate. Oseltamivir and cefcapene pivoxil were used as reference compounds. Liver microsomes at 0.5 mg/mL concentration (final volume of 0.2 mL) were incubated in Tris‐HCl buffer (pH 7.4), containing 50 mmol/L Tris‐HCl, 150 mmol/L KCl, 10 mmol/L MgCl2. The hydrolysis reaction was initiated by applying the test compound solution (final concentration 2 μmol/L). After incubation for 10, 20, and 30 minutes at 37°C, the hydrolysis was terminated by the addition of twofold volume of ice‐cold acetonitrile/methanol (1:1, v/v). Samples were centrifuged at 3000 rpm for 10 minutes prior to LC‐MS/MS analysis of compounds in the supernatants.

For series [3], the system named is cap-dependent endonuclease (CEN). More on the design: method as in PMID 30316915. Conditions: in vitro studies; cited from earlier work.
Series [4] concerns Influenza A virus A/Kadoma/3/2006 (H1N1). The series can be described thus: Experiment 2: infected ferrets, treatment starting at Day 2 p.i. (virus titer in nasal washes, body temperature). To be noted: treatment from Day 2 p.i.; BXM 10 mg/kg twice daily 1 day.

Values joined by “and” are separate entries in the source; they are usually repeats but may differ in a detail not shown here. Identical values can stand only once.

`COC(=O)OCOc1c2n(ccc1=O)N([C@@H]1c3ccccc3SCc3c1ccc(F)c3F)[C@@H]1COCCN1C2=O` [BXM, Baloxavir marboxil]: the “reduction of virus titers by Day 2” value in series [1] (BXM 10 mg/kg twice daily) and in series [1] (BXM 30 mg/kg twice daily) was ≥ 3 log10 of the 50% tissue culture infective doses in each case. For the same molecule, in series [1] (Day 2 p.i., BXM 30 mg/kg twice daily for 1 day from Day 1 p.i., undetectable level), the “virus titer in nasal washes” value is less than 0.5 log10 TCID50/mL. The “% Residual in liver microsome” value in series [2] (10 min) was 25.3%; in series [2] (20 min), 4.6%; in series [2] (30 min), 0.6%. Moreover, the “% Residual in liver microsome Individual value” in series [2] (10 minutes) was 25.3% and 25.2%; in series [2] (20 minutes), 4.9% and 4.4%; in series [2] (30 minutes) it was 0.7% and 0.5%. Moreover, the “CEN inhibitory activity, fold lower than that of BXA” value in series [3] is no less than 200 fold. Moreover, the “body temperature changes over time (in words)” value in series [4] is recorded as “a small but significant effect was observed with BXM compared with vehicle on Day 2”.
